According to ChEMBL document CHEMBL1201862, “PubChem BioAssay data set” (2004):
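All cell lines were grown in 96-well plates and treated with compound for 48 hours. Here, GI50 denotes the concentration required for 50% inhibition of growth.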 Active and inactive are the calls of the source. No stated cut-off is given here; in the data, active = GI50 up to about 1.1 µM and inactive = higher.

Assays:
Test in all cases: NCI anticancer screen, dose series, 48 h
OVCAR-5 = tested on: OVCAR-5
LOX IMVI = tested on: LOX IMVI
SF-295 = tested on: SF-295
Hs-578T = tested on: Hs-578T
UACC-257 = tested on: UACC-257
IGROV-1 = tested on: IGROV-1
CAKI-1 = tested on: CAKI-1
MDA-N = tested on: MDA-N
SK-OV-3 = tested on: SK-OV-3
Malme-3M = tested on: Malme-3M
M14 = tested on: M14
DU-145 = tested on: DU-145
NCI-H522 = tested on: NCI-H522
OVCAR-3 = tested on: OVCAR-3
HOP-62 = tested on: HOP-62
TK-10 = tested on: TK-10
OVCAR-4 = tested on: OVCAR-4
HCT-116 = tested on: HCT-116
A498 = tested on: A498
NCI-H226 = tested on: NCI-H226

Row | SMILES | GI50 (OVCAR-5) | GI50 (LOX IMVI) | GI50 (SF-295) | GI50 (Hs-578T) | GI50 (UACC-257) | GI50 (IGROV-1) | GI50 (CAKI-1) | GI50 (MDA-N) | GI50 (SK-OV-3) | GI50 (Malme-3M) | GI50 (M14) | GI50 (DU-145) | GI50 (NCI-H522) | GI50 (OVCAR-3) | GI50 (HOP-62) | GI50 (TK-10) | GI50 (OVCAR-4) | GI50 (HCT-116) | GI50 (A498) | GI50 (NCI-H226)
1 | CCCn1cnc2c(SCc3ccc(Cl)cc3)nc(N)nc21 | 28.4 µM (inactive) | 22 µM (inactive) | 21.6 µM (inactive) | 47.2 µM (inactive) | 18.5 µM (inactive) | 40.4 µM (inactive) | 24.8 µM (inactive) | 21.9 µM (inactive) | 27.9 µM (inactive) | 26.9 µM (inactive) | 32.4 µM (inactive) | 36.6 µM (inactive) | 16.5 µM (inactive) | 17.2 µM (inactive) | 17.3 µM (inactive) | 13.5 µM (inactive) | 32.7 µM (inactive) | 19.4 µM (inactive) | 16.7 µM (inactive) | 
2 | CC1CN=C(NCc2ccccc2)S1 (stereo unspecified) | > 100 µM (inactive) | > 100 µM (inactive) |  | > 100 µM (inactive) | > 100 µM (inactive) |  |  | 28.4 µM (inactive) | > 100 µM (inactive) | > 100 µM (inactive) | > 100 µM (inactive) | > 100 µM (inactive) | > 100 µM (inactive) | > 100 µM (inactive) | > 100 µM (inactive) | > 100 µM (inactive) |  | > 100 µM (inactive) | > 100 µM (inactive) | 86.7 µM (inactive)
3 | CC1(C)CC2=NO[Se]3=C2C(=NO3)C1 | 5.11 µM (inactive) | 1.6 µM (inactive) | 2.36 µM (inactive) | 4.35 µM (inactive) | 2.17 µM (inactive) | 2.72 µM (inactive) | 3.65 µM (inactive) | 1.95 µM (inactive) | 4.52 µM (inactive) |  | 1.99 µM (inactive) | 3.83 µM (inactive) | 1.9 µM (inactive) | 1.68 µM (inactive) | 2.99 µM (inactive) | 4.29 µM (inactive) | 3.41 µM (inactive) | 0.485 µM (active) | 4.3 µM (inactive) | 3.76 µM (inactive)
4 | CC(=O)Nc1ccc2nc(N)n[n+]([O-])c2c1 | > 100 µM (inactive) | > 100 µM (inactive) | > 100 µM (inactive) | 92.3 µM (inactive) | > 100 µM (inactive) | > 100 µM (inactive) | > 100 µM (inactive) | > 100 µM (inactive) | > 100 µM (inactive) |  | > 100 µM (inactive) | > 100 µM (inactive) | > 100 µM (inactive) | > 100 µM (inactive) | > 100 µM (inactive) | 77.8 µM (inactive) | > 100 µM (inactive) | > 100 µM (inactive) | > 100 µM (inactive) | > 100 µM (inactive)
5 | O=C(Nn1c(-c2ccccc2)nc2ccccc2c1=O)c1cccc([N+](=O)[O-])c1 | > 100 µM (inactive) | > 100 µM (inactive) |  | 95.3 µM (inactive) | > 100 µM (inactive) | > 100 µM (inactive) |  | > 100 µM (inactive) | > 100 µM (inactive) |  | > 100 µM (inactive) | > 100 µM (inactive) | 67 µM (inactive) | > 100 µM (inactive) | > 100 µM (inactive) | 91.8 µM (inactive) | 86.1 µM (inactive) | > 100 µM (inactive) | 48.9 µM (inactive) | 52.8 µM (inactive)
6 | CC1OC(OC2C(CO)OC(O[C@H]3CC[C@@]4(C)C(=CC[C@H]5[C@@H]6C[C@@H]7O[C@](O)(CC[C@H](CO)COC8OC(CO)C(O)C(O)C8O)[C@@H](C)[C@@H]7[C@@]6(C)CC[C@@H]54)C3)C(OC3OC(C)C(O)C(O)C3O)C2O)C(O)C(O)C1O (stereo partly specified) | > 100 µM (inactive) | > 100 µM (inactive) | > 100 µM (inactive) | > 100 µM (inactive) | > 100 µM (inactive) | > 100 µM (inactive) | > 100 µM (inactive) | > 100 µM (inactive) | > 100 µM (inactive) | > 100 µM (inactive) | > 100 µM (inactive) | > 100 µM (inactive) | > 100 µM (inactive) | > 100 µM (inactive) | > 100 µM (inactive) | > 100 µM (inactive) | > 100 µM (inactive) | > 100 µM (inactive) | > 100 µM (inactive) | 
7 | CN1C(NN)=NS(=O)(=O)c2ccccc21 | > 100 µM (inactive) | > 100 µM (inactive) | > 100 µM (inactive) | > 100 µM (inactive) | > 100 µM (inactive) | > 100 µM (inactive) | > 100 µM (inactive) | > 100 µM (inactive) | > 100 µM (inactive) |  | > 100 µM (inactive) | > 100 µM (inactive) | > 100 µM (inactive) | > 100 µM (inactive) | > 100 µM (inactive) | > 100 µM (inactive) | > 100 µM (inactive) | > 100 µM (inactive) | > 100 µM (inactive) | > 100 µM (inactive)
8 | O=C(CSC1=NCCN1)Nc1ccccc1 | 29.3 µM (inactive) | 18 µM (inactive) | 29.4 µM (inactive) | 28.1 µM (inactive) | 17.1 µM (inactive) | 33.4 µM (inactive) | 73.8 µM (inactive) | 17.7 µM (inactive) |  | 24.8 µM (inactive) | 32.9 µM (inactive) | 33.7 µM (inactive) | 19 µM (inactive) | 20.7 µM (inactive) | 48 µM (inactive) | 19.2 µM (inactive) | 65.8 µM (inactive) | 23.8 µM (inactive) | 35 µM (inactive) | 
9 | C#CCOC(=O)C(N)C(C)O (stereo unspecified) | > 100 µM (inactive) | > 100 µM (inactive) | > 100 µM (inactive) | > 100 µM (inactive) | > 100 µM (inactive) | > 100 µM (inactive) | > 100 µM (inactive) | > 100 µM (inactive) | > 100 µM (inactive) | > 100 µM (inactive) | > 100 µM (inactive) | > 100 µM (inactive) | > 100 µM (inactive) | > 100 µM (inactive) | > 100 µM (inactive) | > 100 µM (inactive) |  | > 100 µM (inactive) | > 100 µM (inactive) | > 100 µM (inactive)
10 | O=C(O)c1nc(-c2ccccc2)ncc1-c1nnnn1-c1ccccc1 | > 100 µM (inactive) | > 100 µM (inactive) | > 100 µM (inactive) | > 100 µM (inactive) | > 100 µM (inactive) | > 100 µM (inactive) | > 100 µM (inactive) | > 100 µM (inactive) | > 100 µM (inactive) | > 100 µM (inactive) | > 100 µM (inactive) | > 100 µM (inactive) | > 100 µM (inactive) | > 100 µM (inactive) | > 100 µM (inactive) | > 100 µM (inactive) |  | > 100 µM (inactive) | > 100 µM (inactive) | > 100 µM (inactive)
11 | COc1ccc(S(=O)(=O)n2c3c(c4ccccc42)[C@@H]2[C@@H](CCCN2C(=O)C[S+]([O-])c2ccc(C)cc2)[C@H](Cl)C3)cc1 (stereo partly specified) | > 100 µM (inactive) | > 100 µM (inactive) | > 100 µM (inactive) | > 100 µM (inactive) | > 100 µM (inactive) | 1.51 µM (inactive) | > 100 µM (inactive) | > 100 µM (inactive) | > 100 µM (inactive) | > 100 µM (inactive) | > 100 µM (inactive) | > 100 µM (inactive) | > 100 µM (inactive) | > 100 µM (inactive) | > 100 µM (inactive) | 32 µM (inactive) |  | > 100 µM (inactive) | > 100 µM (inactive) | > 100 µM (inactive)
12 | COc1cc2c(cc1OC)CC(N=[N+]=[N-])c1cc(OC)c(OC)cc1/C=C\2 (stereo unspecified) | > 100 µM (inactive) | 40.6 µM (inactive) | 31.8 µM (inactive) | 24 µM (inactive) | 46 µM (inactive) | 50.9 µM (inactive) | 21 µM (inactive) | 5.75 µM (inactive) | 38.5 µM (inactive) |  | 24.2 µM (inactive) | > 100 µM (inactive) | 50.9 µM (inactive) | 53.7 µM (inactive) | 77.6 µM (inactive) | > 100 µM (inactive) | 99.3 µM (inactive) | 28.7 µM (inactive) | > 100 µM (inactive) | 3.18 µM (inactive)
13 | Cc1ccc(Cl)cc1/N=N/C(=O)NNc1cc(Cl)ccc1C | 15.8 µM (inactive) |  | 19.4 µM (inactive) | 23.8 µM (inactive) |  | 15.3 µM (inactive) | 13.1 µM (inactive) | 31.8 µM (inactive) | 20.3 µM (inactive) | 24 µM (inactive) | 14.5 µM (inactive) | 21.4 µM (inactive) | 13.1 µM (inactive) | 14.7 µM (inactive) | 10.8 µM (inactive) |  |  | 25.4 µM (inactive) | 20.3 µM (inactive) | 20.1 µM (inactive)
14 | Nc1cc(N)c(/N=N/c2cccc3c(S(=O)(=O)O)cccc23)cc1/N=N/c1cc([N+](=O)[O-])ccc1O | 23.3 µM (inactive) | 13.6 µM (inactive) | 32.2 µM (inactive) | 36.8 µM (inactive) | 26.3 µM (inactive) | 15.6 µM (inactive) | 23.6 µM (inactive) | 46.9 µM (inactive) | 59.7 µM (inactive) | 17.3 µM (inactive) | 26.1 µM (inactive) | 30.3 µM (inactive) | 17.5 µM (inactive) | 9.08 µM (inactive) | 29.9 µM (inactive) | 47 µM (inactive) | 18.4 µM (inactive) | 32.7 µM (inactive) | 27 µM (inactive) | 
15 | CN(C)CCN1C(=O)c2cccc3cc(N)cc(c23)C1=O [AMONAFIDE] | 4.83 µM (inactive) | 2.46 µM (inactive) | 3.46 µM (inactive) | 6.21 µM (inactive) | 4.36 µM (inactive) | 3.49 µM (inactive) |  | 2.9 µM (inactive) | 4.42 µM (inactive) | 3.31 µM (inactive) | 3.72 µM (inactive) | 2.94 µM (inactive) | 3.71 µM (inactive) | 5.81 µM (inactive) | 2.43 µM (inactive) | 3.89 µM (inactive) | 4.71 µM (inactive) | 1.87 µM (inactive) | 3.58 µM (inactive) | 2.4 µM (inactive)
